# Assay results reported in patent US20180228780A1, “3-(1H-PYRROLO[2,3-C]PYRIDIN-2-YL)-1H-INDAZOLES AND THERAPEUTIC USES THEREOF” (Samumed, LLC, priority 2015, published 2018).
# What was measured:
# Assay type in all cases: cell-based
# [1] = tested on: primary human mesenchymal stem cells (hMSCs); assay: Induction of chondrogenesis in hMSCs (nodule imaging, Rhodamine B / Nile Red); settings: 6 days; for EC50: concentration required to induce 50% levels of chondrogenesis vs TGF-β3, read-out: Conc (nM) of 50% TGF-β3 activity; for Emax: relative to TGF-β3 (10 ng/mL) positive control, read-out: Max. Activity as % TGF-β3 activity
# Method in brief: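 Primary hMSCs at passage 3-6 were treated with compound; nodule area per well was normalized to the mean of 3 DMSO wells, averaged over 2-3 replicates, and the concentration giving 50% chondrogenesis relative to TGF-β3 control, plus maximum activity and its dose, was derived.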
# [2] = tested on: Primary human fibroblasts derived from IPF patients (LL29 cells); assay: Inhibition of the fibrotic process: αSMA staining in TGF-β1-treated LL29 fibroblasts; settings: Fibroblast; for EC50: 96 h, LL29 cells, TGF-β1 20 ng/mL, 4 days, % αSMA-positive cells; for inhibition at 10 µM: read-out: percent inhibition at 10 μM
# Method in brief: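 LL29 IPF-patient lung fibroblasts plated in F12 with 1% FBS, treated with TGF-β1 plus compound; TGF-β1/DMSO wells served as controls. After 4 days incubation, SYTOX green (1 μM final) added for 30 min at room temperature; αSMA staining used as fibrosis read-out.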
# [3] = tested on: Wnt activity (Sp5-Luc reporter, SW480 colon carcinoma cells); assay: Screening assay for Wnt activity: Sp5-Luc reporter gene assay in SW480 cells; settings: Homo sapiens; for inhibition at 10 µM: SW480, read-out: percent inhibition at 10 μM; for EC50: SW480 Sp5-Luc reporter, overnight incubation
# Method in brief: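 SW480 colon carcinoma cells stably carrying Sp5 promoter (eight TCF/LEF sites)-driven firefly luciferase, plated at 4,000 cells/well in 1% FBS medium and incubated overnight at 37° C. Luminescence normalised to DMSO-only cells; EC50 from four-parameter variable-slope nonlinear regression.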
# [4] = tested on: SW480 colon cancer cells; assay: Cell viability assay (CellTiter-Blue) in SW480 colon cancer cells; settings: Homo sapiens; for EC50: 96 h, SW480 cell viability, four days incubation; for inhibition at 10 µM: SW480, read-out: percent inhibition at 10 μM
# Method in brief: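 Fluorescence from resazurin reduced to resorufin by metabolically active cells was the read-out, taken after ~3 h with CellTiter-Blue.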
# [5] = tested on: IL-6 (THP-1 cells); assay: IL-6 inhibition in THP-1 monocytes (HTRF); settings: Homo sapiens; for inhibition at 10 µM: THP-1, read-out: percentage in parentheses printed under EC50 >10; for EC50: IL-6 inhibition, THP-1 cells, HTRF, 10-point dose-response starting from 10 μM
# Method in brief: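 THP-1 cells serum-reduced (1% FBS, 24 h), plated 5000/well, stimulated with 500 ng/mL […] after 2 h and incubated a further 22 h at 37 °C. Secreted IL-6 quantified by HTRF (665/620 nm ratio), normalized to DMSO; EC50 from four-parameter fit, duplicates.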
EC50 [1],EC50 [3],EC50 [4],EC50 [5],Compound,Emax [1],EC50 [2],inhibition at 10 µM [3],inhibition at 10 µM [5],inhibition at 10 µM [4],inhibition at 10 µM [2]
100 nM,> 10000 nM,> 10000 nM,1020 nM,"CCCC(=O)Nc1cncc(-c2ccc3[nH]nc(-c4cc5c(-c6ccncc6)cncc5[nH]4)c3c2)c1 [Compound 129, N-(5-(3-(4-(Pyridin-4-yl)-1H-pyrrolo[2,3-c]pyridin-2-yl)-1H-indazol-5-yl)pyridin-3-yl)butyramide]",124%,6200 nM,25.5%,–,15.5%,–
30 nM,915 nM,298 nM,689 nM,CCCCC(=O)Nc1cncc(-c2ccc3[nH]nc(-c4cc5c(-c6ccoc6)cncc5[nH]4)c3c2)c1 [Compound 327],122%,1340 nM,–,–,–,–
30 nM,8250 nM,> 10000 nM,> 10000 nM,"CN1CCN(c2cncc3[nH]c(-c4n[nH]c5ccc(-c6cncc(N)c6)cc45)cc23)CC1 [Compound 227, 5-(3-(4-(4-Methylpiperazin-1-yl)-1H-pyrrolo[2,3-c]pyridin-2-yl)-1H-indazol-5-yl)pyridin-3-amine]",51%,5310 nM,–,48.5%,37.2%,–
900 nM,452 nM,986 nM,22 nM,"CCCC(=O)Nc1cncc(-c2ccc3[nH]nc(-c4cc5ccncc5[nH]4)c3c2)c1 [Compound 269, N-(5-(3-(1H-Pyrrolo[2,3-c]pyridin-2-yl)-1H-indazol-5-yl)pyridin-3-yl) butyramide]",152%,410 nM,–,–,–,–
–,554 nM,1100 nM,198 nM,"CS(=O)(=O)NCc1cc(F)cc(-c2cncc3[nH]c(-c4n[nH]c5ccc(-c6cncc(NC(=O)C7CCC7)c6)cc45)cc23)c1 [Compound 497, N-(5-(3-(4-(3-Fluoro-5-(methylsulfonamidomethyl)phenyl)-1H-pyrrolo[2,3-c]pyridin-2-yl)-1H-indazol-5-yl)pyridin-3-yl)cyclobutanecarboxamide]",15%,5430 nM,–,–,–,–
–,3480 nM,4450 nM,500 nM,"CN1CCN(c2cncc3[nH]c(-c4n[nH]c5ccc(-c6cncc(NC(=O)CC(C)(C)C)c6)cc45)cc23)CC1 [Compound 240, 3,3-Dimethyl-N-(5-(3-(4-(4-methylpiperazin-1-yl)-1H-pyrrolo[2,3-c]pyridin-2-yl)-1H-indazol-5-yl)pyridin-3-yl)butanamide]",31%,2650 nM,–,–,–,–

# Continued, compound first:
Compound,EC50 [1],EC50 [3],EC50 [4],EC50 [5],Emax [1],EC50 [2],inhibition at 10 µM [3],inhibition at 10 µM [5],inhibition at 10 µM [4],inhibition at 10 µM [2]
"CN(C)Cc1cncc(-c2ccc3[nH]nc(-c4cc5c(-c6cccc(F)c6)cncc5[nH]4)c3c2F)c1 [Compound 993, 1-(5-(4-Fluoro-3-(4-(3-fluorophenyl)-1H-pyrrolo[2,3-c]pyridin-2-yl)-1H-indazol-5-yl)pyridin-3-yl)-N,N-dimethylmethanamine]",2700 nM,> 10000 nM,1600 nM,> 10000 nM,114%,1700 nM,46.8%,18.1%,–,–
"FC1(F)CCN(Cc2cncc(-c3ccc4[nH]nc(-c5cc6c(-c7cccnc7)cncc6[nH]5)c4c3)c2)C1 [Compound 110, 5-(5-((3,3-Difluoropyrrolidin-1-yl)methyl)pyridin-3-yl)-3-(4-(pyridin-3-yl)-1H-pyrrolo[2,3-c]pyridin-2-yl)-1H-indazole]",900 nM,526 nM,1280 nM,353 nM,256%,337 nM,–,–,–,–
"CN(C)c1cncc(-c2ccc3[nH]nc(-c4cc5c(-c6ccoc6)cncc5[nH]4)c3c2)c1 [Compound 315, 5-(3-(4-(Furan-3-yl)-1H-pyrrolo[2,3-c]pyridin-2-yl)-1H-indazol-5-yl)-N,N-dimethylpyridin-3-amine]",300 nM,1450 nM,559 nM,505 nM,69%,1510 nM,–,–,–,–
"Cn1cc(-c2ccc3[nH]nc(-c4cc5c(-c6cccnc6)cncc5[nH]4)c3c2)cn1 [Compound 556, 5-(1-Methyl-1H-pyrazol-4-yl)-3-(4-(pyridin-3-yl)-1H-pyrrolo[2,3-c]pyridin-2-yl)-1H-indazole]",30 nM,250 nM,506 nM,> 10000 nM,65%,> 10000 nM,–,44.3%,–,0%
"CN(C)Cc1cncc(-c2cc3c(-c4cc5c(-c6cccc(F)c6)cncc5[nH]4)n[nH]c3cc2F)c1 [Compound 992, 1-(5-(6-Fluoro-3-(4-(3-fluorophenyl)-1H-pyrrolo[2,3-c]pyridin-2-yl)-1H-indazol-5-yl)pyridin-3-yl)-N,N-dimethylmethanamine]",–,960 nM,294 nM,74 nM,21%,920 nM,–,–,–,–
"c1cncc(-c2ccc3[nH]nc(-c4cc5c(-c6cccnc6)cncc5[nH]4)c3c2)c1 [Compound 88, 5-(Pyridin-3-yl)-3-(4-(pyridin-3-yl)-1H-pyrrolo[2,3-c]pyridin-2-yl)-1H-indazole]",100 nM,310 nM,495 nM,105 nM,58%,> 10000 nM,–,–,–,0%
